The record followed here is patent US11944622B2 (Annapurna Bio, Inc., priority 2018, dated 2024).

The assay deals with T1, APJ Receptor (Homo sapiens, UniProt P35414).
T1 sequence (P35414 1-380): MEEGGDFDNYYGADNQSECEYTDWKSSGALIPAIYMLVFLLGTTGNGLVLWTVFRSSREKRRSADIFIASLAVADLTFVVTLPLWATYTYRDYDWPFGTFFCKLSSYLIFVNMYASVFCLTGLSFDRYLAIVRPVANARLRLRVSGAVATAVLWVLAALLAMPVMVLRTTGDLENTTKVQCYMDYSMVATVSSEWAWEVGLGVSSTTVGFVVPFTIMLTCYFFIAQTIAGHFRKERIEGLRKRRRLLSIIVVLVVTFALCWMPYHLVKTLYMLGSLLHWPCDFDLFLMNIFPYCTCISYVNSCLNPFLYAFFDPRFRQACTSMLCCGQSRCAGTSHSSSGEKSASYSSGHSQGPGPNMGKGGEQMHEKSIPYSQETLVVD
Kind of assay: APJ cAMP assay (DiscoverX enzyme fragment complementation; inhibition of forskolin-stimulated cAMP). Format: cell-based. Conditions: CHO-K1 cell line stably expressing the APJ Receptor; EC80 forskolin; 30 minutes at 37° C.; read-out: Potency Range (APJ cAMP EC50). An excerpt: Activation of APJ receptor is known to inhibit forskolin-stimulated cyclic AMP (cAMP) production in cells in a pertussis toxin-sensitive manner which indicates primary coupling to the GαI subunit of the G protein heterotrimeric complex. In addition to signaling through G protein and inhibition of cAMP, APJ receptor activation also results in β-arrestin recruitment, receptor internalization and activation of extracellular-regulated kinases (ERKs).
In order to optimize functional activity directed toward Gi coupling we utilized a CHO-K 1 cell line developed by DiscoverX stably expressing the APJ Receptor. Cells expressing APJR receptor were plated in a 384-well microtiter plates and incubated overnight at 37° C. with 5% CO2 to allow the cells to attach and grow. Media was then aspirated from the cells and replaced with 15 uL 2:1 Hanks Balanced Salt Solution (HBSS)/10 mM Hepes:cAMP XS+Ab reagent. Five microliters (5 uL) of previously generated compound sample stocks at 4× final concentration in assay buffer containing 4× EC80 forskolin were then added to the cells and allowed to incubate at 37° C. for 30 minutes.
After incubation the assay signal was generated using a technology termed enzyme fragment complementation (EFC). In EFC the enzyme B-galactosidase is split into two complementary portions (EA and ED). The fragment ED is fused to cAMP and in the assay format competes with endogenous cAMP for binding to a cAMP specific antibody. Activated B-Gal is formed when exogenous EA fragment binds to free ED-cAMP (not bound to cAMP specific antibody). Activated enzyme levels are detected through conversion of B-gal chemiluminescent substrate which generates a detectable luminescence signal and read on standard microtiter plate.
The methodology for detection of cAMP using EFC requires incubation with 20 uL of cAMP XS+ED/CL lysis cocktail for one hour followed by incubation with 20 uL cAMP XS+EA reagent for three hours at room temperature. Microplates were read following signal generation with a PerkinElmer Envision instrument utilizing chemiluminescent signal detection.
Compound activity was analyzed using CBIS data analysis suite (ChemInnovation, CA). Percentage activity was calculated using the following formula: % Activity=100%×(1−(mean RLU of test sample−mean RLU of Max control)/(mean RLU of vehicle control−mean RLU of Max control))
As to `CCOc1cccc(-c2nc3nc(Cl)c(NS(=O)(=O)Cc4ncccc4F)nc3n2-c2c(OC)cccc2OC)n1` [Example 94, N-(5-Chloro-1-(2,6-dimethoxyphenyl)-2-(6-ethoxypyridin-2-yl)-1H-imidazo[4,5-b]pyrazin-6-yl)-1-(3-fluoropyridin-2-yl)methanesulfonamide], the EC50 lay within 0.001 to 0.1 µM.

For the compound `CCOc1cccc(-c2nc3nc(CC)c(NS(C)(=O)=O)nc3n2-c2c(OC)cccc2OC)n1` [Example 86, N-(1-(2,6-dimethoxyphenyl)-2-(6-ethoxypyridin-2-yl)-5-ethyl-1H-imidazo[4,5-b]pyrazin-6-yl)methanesulfonamide], the EC50 was 0.001 to 0.1 µM.

On to `CCOc1cccc(-c2nc3nc(Cl)c(NS(=O)(=O)c4ccc(CF)cc4)nc3n2-c2c(OC)cccc2OC)n1` [Example 103, N-(5-Chloro-1-(2,6-dimethoxyphenyl)-2-(6-ethoxypyridin-2-yl)-1H-imidazo[4,5-b]pyrazin-6-yl)-4-(fluoromethyl)benzenesulfonamide], for which the EC50 is < 0.001 µM.

For `CCOc1cccc(-c2nc3ncc(NS(C)(=O)=O)nc3n2C(C)C)n1` [Example 59, N-(2-(6-ethoxypyridin-2-yl)-1-isopropyl-II-1-imidazo[4,5-b]pyrazin-6-yl)methanesulfonamide], the EC50 was 0.1 to 10 µM.

Consider `CCOc1cccc(-c2nc3ncc(NC)nc3n2-c2c(OC)cccc2OC)n1` [Example 9, 1-(2,6-dimethoxyphenyl)-2-(6-ethoxypyridin-2-yl)-N-methyl-1H-imidazo[4,5-b]pyrazin-6-amine], for which the EC50 was in the range of 0.001 to 0.1 µM.

For `CCOc1cccc(-c2nc3ncc(NS(=O)(=O)CC4(O)CC4)nc3n2-c2c(OC)cccc2OC)n1` [Example 61, N-(1-(2,6-dimethoxyphenyl)-2-(6-ethoxypyridin-2-yl)-1H-imidazo[4,5-b]pyrazin-6-yl)-1-(1-hydroxycyclopropyl)methanesulfonamide], the EC50 was 0.001 to 0.1 µM.

For the compound `CCOc1cccc(-c2nc3nc(Cl)c(NS(=O)(=O)Cc4ccc(C)cc4F)nc3n2-c2c(OC)cccc2OC)n1` [Example 100, N-(5-Chloro-1-(2,6-dimethoxyphenyl)-2-(6-ethoxypyridin-2-yl)-1H-imidazo[4,5-b]pyrazin-6-yl)-1-(2-fluoro-4-methylphenyl)methanesulfonamide], the 50% effective concentration (EC50) lay within 0.001 to 0.1 µM.

Take `CCOc1cccc(-c2nc3ncc(N(C)S(C)(=O)=O)nc3n2-c2c(OC)cccc2OC)n1` [Example 32, N-(1-(2,6-dimethoxyphenyl)-2-(6-ethoxypyridin-2-yl)-1H-imidazo[4,5-b]pyrazin-6-yl)-N-methylmethanesulfonamide]: the 50% effective concentration (EC50) lay within 0.1 to 10 µM.

For the compound `CCOc1cccc(-c2nc3nc(Cl)cnc3n2-c2c(OC)cccc2OC)n1` [Example 15, 5-chloro-1-(2,6-dimethoxyphenyl)-2-(6-ethoxypyridin-2-yl)-1H-imidazo[4,5-b]pyrazine], the concentration for a half-maximal effect (EC50) lay within 0.1 to 10 µM.

In the case of `CCOc1cccc(-c2nc3nc(NS(C)(=O)=O)cnc3n2-c2c(OC)cccc2OC)n1` [Example 43, N-(1-(2,6-dimethoxyphenyl)-2-(6-ethoxypyridin-2-yl)-1H-imidazo[4,5-b]pyrazin-5-yl)methanesulfonamide], the EC50 was 0.001 to 0.1 µM.

Regarding `CCOc1cccc(-c2nc3ncc(NS(=O)(=O)Cc4ncc(F)cn4)nc3n2-c2c(OC)cccc2OC)n1` [Example 79, N-(1-(2,6-dimethoxyphenyl)-2-(6-ethoxypyridin-2-yl)-1H-imidazo[4,5-b]pyrazin-6-yl)-1-(5-fluoropyrimidin-2-yl)methanesulfonamide], the EC50 is < 0.001 µM.

With `CCOc1cccc(-c2nc3nnc(NS(=O)(=O)CC4CC(C)(O)C4)cc3n2-c2c(OC)cccc2OC)n1` (stereo not shown) [Example 128, N-(5-(2,6-Dimethoxyphenyl)-6-(6-ethoxypyridin-2-yl)-5H-imidazo[4,5-c]pyridazin-3-yl)-1-(3-hydroxy-3-methylcyclobutyl)methanesulfonamide], the EC50 is < 0.001 µM.

For `CCOc1cccc(-c2nc3ncc(NS(=O)(=O)CC4CCNCC4)nc3n2-c2c(OC)cccc2OC)n1` [Example 38, N-(1-(2,6-dimethoxyphenyl)-2-(6-ethoxypyridin-2-yl)-1H-imidazo[4,5-b]pyrazin-6-yl)-1-(piperidin-4-yl)methanesulfonamide], the EC50 fell in the range of 0.001 to 0.1 µM.

On to `CC#CCS(=O)(=O)Nc1nc2c(nc1Cl)nc(-c1cccc(OCC)n1)n2-c1c(OC)cccc1OC` [Example 110, N-(5-Chloro-1-(2,6-dimethoxyphenyl)-2-(6-ethoxypyridin-2-yl)-1H-imidazo[4,5-b]pyrazin-6-yl)but-2-yne-1-sulfonamide], for which the concentration for a half-maximal effect (EC50) is < 0.001 µM.

In the case of `CCOc1cccc(-c2nc3ncc(N(C)C)nc3n2-c2c(OC)cccc2OC)n1` [Example 12, 1-(2,6-dimethoxyphenyl)-2-(6-ethoxypyridin-2-yl)-N,N-dimethyl-1H-imidazo[4,5-b]pyrazin-6-amine], the 50% effective concentration (EC50) lay within 0.1 to 10 µM.

For `CCOc1cccc(-c2nc3ncc(NS(=O)(=O)C[C@H]4C[C@](C)(O)C4)nc3n2-c2c(OC)cccc2OC)n1` [Example 81, trans-N-(1-(2,6-Dimethoxyphenyl)-2-(6-ethoxypyridin-2-yl)-1H-imidazo[4,5-b]pyrazin-6-yl)-1-((1r,3r)-3-hydroxy-3-methylcyclobutyl)methanesulfonamide], the EC50 lay within 0.001 to 0.1 µM.

In the case of `CCOc1cccc(-c2nc3nnc(NS(C)(=O)=O)c(C)c3n2-c2c(OC)cccc2OC)n1` [Example 139, N-(7-(2,6-Dimethoxyphenyl)-8-(6-ethoxypyridin-2-yl)-6-methyl-7H-imidazo[4,5-c]pyridazinyl)methanesulfonamide], the EC50 was 0.001 to 0.1 µM.

As to `CCOc1cccc(-c2nc3ncc(NS(=O)(=O)[C@H]4C[C@@H](O)C4)nc3n2-c2c(OC)cccc2OC)n1` [Example 33, cis-N-(1-(2,6-dimethoxyphenyl)-2-(6-ethoxypyridin-2-yl)-1H-imidazo[4,5-b]pyrazin-6-yl)-3-hydroxycyclobutane-1-sulfonamide], the half-maximal effective concentration (EC50) is 0.001 to 0.1 µM.

For `CCOc1cccc(-c2nc3nc(Cl)c(NS(=O)(=O)Cc4ccc(C)cn4)nc3n2-c2c(OC)cccc2OC)n1` [Example 114, N-(5-Chloro-1-(2,6-dimethoxyphenyl)-2-(6-ethoxypyridin-2-yl)-1H-imidazo[4,5-b]pyrazin-6-yl)-1-(5-methylpyridin-2-yl)methanesulfonamide], the concentration for a half-maximal effect (EC50) was 0.001 to 0.1 µM.

For the compound `COc1cccc(OC)c1-n1c(-c2cccc(OCC(F)(F)F)n2)nc2ncc(NS(C)(=O)=O)nc21` [Example 55, N-(1-(2,6-dimethoxyphenyl)-2-(6-(trifluoroethoxy)pyridin-2-yl)-1H-imidazo[4,5-b]pyrazin-6-yl)methanesulfonamide], the EC50 fell in the range of 0.001 to 0.1 µM.

Turning to `CCOc1cccc(-c2nc3nnc(NS(=O)(=O)Cc4ncc(C)cn4)cc3n2-c2c(OC)cccc2OC)n1` [Example 126, N-(7-(2,6-Dimethoxyphenyl)-8-(6-ethoxypyridin-2-yl)-7H-imidazo[4,5-c]pyridazinyl)-1-(5-methylpyrimidin-2-yl)methanesulfonamide], the half-maximal effective concentration (EC50) is < 0.001 µM.

With `CCOc1cccc(-c2nc3nc(NS(=O)(=O)CC4CC4)cnc3n2-c2c(OC)cccc2OC)n1` [Example 45, 1-cyclopropyl-N-(1-(2,6-dimethoxyphenyl)-2-(6-ethoxypyridin-2-yl)-1H-imidazo[4,5-b]pyrazin-5-yl)methanesulfonamide], the half-maximal effective concentration (EC50) was < 0.001 µM.
